Test results published in the supplement of paper PMC10307832.

Tests used:
Assay in all cases: relative viability (nuclei count vs DMSO), 5 days (fraction); higher = more cells survive
H3255 = test system: H3255
Procedure, shortened: (§1)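 The day after seeding in 1536-well plates, lung cancer cell lines were treated by pin tool with a single drug, or with a fixed anchor-drug dose together with five library-drug doses (not always all listed) in √10 steps. After 5 days, a combined fix-and-stain solution (final 0.05% Triton X-100, 1% formaldehyde, 1 ug/ml Hoechst) was added. Nuclei counted on 4× images gave relative viability as treated counts over vehicle counts, reported as the median of duplicate plates.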

CAL-12T = test system: CAL-12T
Procedure, shortened: as §1

HOP-62 = test system: HOP-62
Procedure, shortened: as §1

NCI-H647 = test system: NCI-H647
Procedure, shortened: as §1

LXF-289 = test system: LXF-289
Procedure, shortened: as §1

NCI-H2009 = test system: NCI-H2009
Procedure, shortened: as §1

NCI-H522 = test system: NCI-H522
Procedure, shortened: as §1

NCI-H2170 = test system: NCI-H2170
Procedure, shortened: as §1

NCI-H2087 = test system: NCI-H2087
Procedure, shortened: as §1

SW 900 = test system: SW 900
Procedure, shortened: as §1

NCI-H1755 = test system: NCI-H1755
Procedure, shortened: as §1

NCI-H596 = test system: NCI-H596
Procedure, shortened: as §1

NCI-H322M = test system: NCI-H322M
Procedure, shortened: as §1

NCI-H1734 = test system: NCI-H1734
Procedure, shortened: as §1

EMC-BAC-2 = test system: EMC-BAC-2
Procedure, shortened: as §1

NCI-H441 = test system: NCI-H441
Procedure, shortened: as §1

201T = test system: 201T
Procedure, shortened: as §1

NCI-H2126 = test system: NCI-H2126
Procedure, shortened: as §1

NCI-H1651 = test system: NCI-H1651
Procedure, shortened: as §1

LK-2 = test system: LK-2
Procedure, shortened: as §1

COCC1(CO)C(=O)C2CCN1CC2 (configuration not stated) [PRIMA-1MET] + CC(=O)Nc1cccc(-n2c(=O)n(C3CC3)c(=O)c3c(Nc4ccc(I)cc4F)n(C)c(=O)c(C)c32)c1 [Trametinib] (partner 0.02 µM) gave a relative viability (H3255; first compound 0.2 µM) of 0.51, a relative viability (H3255; first compound 0.6325 µM) of 0.625 and a relative viability (H3255; first compound 2 µM) of 0.57. It also gave a relative viability (H3255; first compound 6.325 µM) of 0.575, a relative viability (H3255; first compound 20 µM) of 0.55 and a relative viability (CAL-12T; first compound 0.2 µM) of 0.274. It also gave a relative viability (CAL-12T; first compound 0.6325 µM) of 0.319, a relative viability (CAL-12T; first compound 2 µM) of 0.313 and a relative viability (CAL-12T; first compound 6.325 µM) of 0.235. The relative viability (CAL-12T; first compound 20 µM) was 0.15, the relative viability (HOP-62; first compound 0.2 µM) was 0.217 and the relative viability (HOP-62; first compound 0.6325 µM) was 0.34. For the same molecule, the relative viability (HOP-62; first compound 2 µM) was 0.334, the relative viability (HOP-62; first compound 6.325 µM) was 0.344 and the relative viability (HOP-62; first compound 20 µM) was 0.364. For the same molecule, the relative viability (NCI-H647; first compound 0.2 µM) was 0.306, the relative viability (NCI-H647; first compound 0.6325 µM) was 0.537 and the relative viability (NCI-H647; first compound 2 µM) was 0.279. For the same molecule, the relative viability (NCI-H647; first compound 6.325 µM) was 0.456, the relative viability (NCI-H647; first compound 20 µM) was 0.413 and the relative viability (LXF-289; first compound 0.2 µM) was 0.582. The relative viability (LXF-289; first compound 0.6325 µM) was 0.591, the relative viability (LXF-289; first compound 2 µM) was 0.67 and the relative viability (LXF-289; first compound 6.325 µM) was 0.651. It also gave a relative viability (LXF-289; first compound 20 µM) of 0.659, a relative viability (NCI-H2009; first compound 0.2 µM) of 0.246 and a relative viability (NCI-H2009; first compound 0.6325 µM) of 0.306. For the same molecule, the relative viability (NCI-H2009; first compound 2 µM) was 0.237, the relative viability (NCI-H2009; first compound 6.325 µM) was 0.252 and the relative viability (NCI-H2009; first compound 20 µM) was 0.0028. The relative viability (NCI-H522; first compound 0.2 µM) was 0.655, the relative viability (NCI-H522; first compound 0.6325 µM) was 0.673 and the relative viability (NCI-H522; first compound 2 µM) was 0.528. The relative viability (NCI-H522; first compound 6.325 µM) was 0.717, the relative viability (NCI-H522; first compound 20 µM) was 0.121 and the relative viability (NCI-H2170; first compound 0.2 µM) was 0.914. It also gave a relative viability (NCI-H2170; first compound 0.6325 µM) of 0.911, a relative viability (NCI-H2170; first compound 2 µM) of 0.887 and a relative viability (NCI-H2170; first compound 6.325 µM) of 0.975. The relative viability (NCI-H2170; first compound 20 µM) was 0.964, the relative viability (NCI-H2087; first compound 0.6325 µM) was 0.185 and the relative viability (NCI-H2087; first compound 2 µM) was 0.19. It also gave a relative viability (NCI-H2087; first compound 6.325 µM) of 0.168, a relative viability (NCI-H2087; first compound 20 µM) of 0.117 and a relative viability (SW 900; first compound 0.2 µM) of 0.615. It also gave a relative viability (SW 900; first compound 0.6325 µM) of 0.765, a relative viability (SW 900; first compound 6.325 µM) of 0.676 and a relative viability (SW 900; first compound 20 µM) of 0.131. For the same molecule, the relative viability (NCI-H1755; first compound 0.2 µM) was 0.676, the relative viability (NCI-H1755; first compound 0.6325 µM) was 0.729 and the relative viability (NCI-H1755; first compound 2 µM) was 0.644. It also gave a relative viability (NCI-H1755; first compound 6.325 µM) of 0.745, a relative viability (NCI-H1755; first compound 20 µM) of 0.762 and a relative viability (NCI-H596; first compound 0.2 µM) of 0.888. It also gave a relative viability (NCI-H596; first compound 0.6325 µM) of 0.718, a relative viability (NCI-H596; first compound 2 µM) of 0.66 and a relative viability (NCI-H596; first compound 6.325 µM) of 0.837. The relative viability (NCI-H596; first compound 20 µM) was 0.119, the relative viability (NCI-H322M; first compound 0.2 µM) was 0.484 and the relative viability (NCI-H322M; first compound 0.6325 µM) was 0.467. The relative viability (NCI-H322M; first compound 6.325 µM) was 0.468, the relative viability (NCI-H322M; first compound 20 µM) was 0.45 and the relative viability (NCI-H1734; first compound 0.2 µM) was 0.564. The relative viability (NCI-H1734; first compound 0.6325 µM) was 0.622, the relative viability (NCI-H1734; first compound 2 µM) was 0.584 and the relative viability (NCI-H1734; first compound 6.325 µM) was 0.581. For the same molecule, the relative viability (NCI-H1734; first compound 20 µM) was 0.0425, the relative viability (EMC-BAC-2; first compound 0.2 µM) was 0.637 and the relative viability (EMC-BAC-2; first compound 0.6325 µM) was 0.904. It also gave a relative viability (EMC-BAC-2; first compound 2 µM) of 0.907, a relative viability (EMC-BAC-2; first compound 6.325 µM) of 0.734 and a relative viability (EMC-BAC-2; first compound 20 µM) of 0.91. The relative viability (NCI-H441; first compound 0.2 µM) was 0.418, the relative viability (NCI-H441; first compound 0.6325 µM) was 0.297 and the relative viability (NCI-H441; first compound 2 µM) was 0.369. For the same molecule, the relative viability (NCI-H441; first compound 6.325 µM) was 0.399, the relative viability (NCI-H441; first compound 20 µM) was 0.267 and the relative viability (201T; first compound 0.2 µM) was 0.757. It also gave a relative viability (201T; first compound 0.6325 µM) of 0.74, a relative viability (201T; first compound 2 µM) of 0.684 and a relative viability (201T; first compound 6.325 µM) of 0.749. It also gave a relative viability (201T; first compound 20 µM) of 0.721, a relative viability (NCI-H2126; first compound 0.2 µM) of 0.604 and a relative viability (NCI-H2126; first compound 0.6325 µM) of 0.47. The relative viability (NCI-H2126; first compound 2 µM) was 0.597, the relative viability (NCI-H2126; first compound 6.325 µM) was 0.577 and the relative viability (NCI-H2126; first compound 20 µM) was 0.543. It also gave a relative viability (NCI-H1651; first compound 0.2 µM) of 0.826, a relative viability (NCI-H1651; first compound 0.6325 µM) of 0.562 and a relative viability (NCI-H1651; first compound 2 µM) of 0.842. For the same molecule, the relative viability (NCI-H1651; first compound 6.325 µM) was 0.849, the relative viability (NCI-H1651; first compound 20 µM) was 0.848 and the relative viability (LK-2; first compound 0.2 µM) was 0.477. For the same molecule, the relative viability (LK-2; first compound 0.6325 µM) was 0.766, the relative viability (LK-2; first compound 2 µM) was 0.357 and the relative viability (LK-2; first compound 6.325 µM) was 0.455. For the same molecule, the relative viability (LK-2; first compound 20 µM) was 0.199.
